Source: US12187723B2 (BRISTOL-MYERS SQUIBB COMPANY, priority 2019, dated 2025)

Legend:
human TLR8 = target: T1, human TLR8 (Homo sapiens, UniProt Q9NR97); assay: TLR8 inhibition reporter assay (HEK-Blue SEAP); format: cell-based; conditions: HEK-Blue cells overexpressing human TLR8, R848 15.9 μM, 22 hour incubation
T1 construct: host or cells: HEK-Blue cells
T1 sequence (Q9NR97 27-1041): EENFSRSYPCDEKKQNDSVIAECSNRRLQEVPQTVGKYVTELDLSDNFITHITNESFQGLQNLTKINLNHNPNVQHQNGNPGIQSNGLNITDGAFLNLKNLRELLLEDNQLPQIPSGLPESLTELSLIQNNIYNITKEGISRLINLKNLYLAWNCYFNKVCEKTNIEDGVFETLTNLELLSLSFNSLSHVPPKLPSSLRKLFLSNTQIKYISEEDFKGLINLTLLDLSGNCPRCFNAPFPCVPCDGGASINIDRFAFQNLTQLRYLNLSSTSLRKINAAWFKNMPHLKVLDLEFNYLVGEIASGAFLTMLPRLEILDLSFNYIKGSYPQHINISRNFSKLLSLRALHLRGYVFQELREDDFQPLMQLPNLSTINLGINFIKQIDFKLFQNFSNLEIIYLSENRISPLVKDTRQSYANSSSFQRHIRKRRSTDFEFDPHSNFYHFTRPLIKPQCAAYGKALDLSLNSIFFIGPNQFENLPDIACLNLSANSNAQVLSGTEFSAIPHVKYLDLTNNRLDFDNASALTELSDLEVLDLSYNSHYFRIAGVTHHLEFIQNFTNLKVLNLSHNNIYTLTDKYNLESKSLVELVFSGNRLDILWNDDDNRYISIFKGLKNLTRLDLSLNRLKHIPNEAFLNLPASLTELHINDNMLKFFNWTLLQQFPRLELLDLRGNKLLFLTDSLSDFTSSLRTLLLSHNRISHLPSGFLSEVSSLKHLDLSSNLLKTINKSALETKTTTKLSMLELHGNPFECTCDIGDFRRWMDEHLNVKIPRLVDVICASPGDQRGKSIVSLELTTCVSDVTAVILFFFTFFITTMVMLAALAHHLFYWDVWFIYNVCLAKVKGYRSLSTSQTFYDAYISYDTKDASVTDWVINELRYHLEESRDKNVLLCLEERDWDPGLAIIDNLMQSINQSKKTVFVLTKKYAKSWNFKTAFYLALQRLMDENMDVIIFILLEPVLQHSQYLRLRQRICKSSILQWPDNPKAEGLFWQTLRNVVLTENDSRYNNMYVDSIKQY
Method in brief: (§1)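 Compound treatment: 30 min, RT, 0.05 nM–50 μM final. Agonist: TLR7 gardiquimod 7.5 μM; TLR8 R848 15.9 μM; TLR9 ODN2006 5 nM. Incubation 22 h, 37 °C, 5% CO2. Readout SEAP, HEK-Blue Detection.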

human TLR9 = target: T2, human TLR9 (Homo sapiens, UniProt Q9NR96); assay: TLR9 inhibition reporter assay (HEK-Blue SEAP); format: cell-based; conditions: HEK-Blue cells overexpressing human TLR9, ODN2006 5 nM, 22 hour incubation
T2 construct: host or cells: HEK-Blue cells
T2 sequence (Q9NR96 26-1032): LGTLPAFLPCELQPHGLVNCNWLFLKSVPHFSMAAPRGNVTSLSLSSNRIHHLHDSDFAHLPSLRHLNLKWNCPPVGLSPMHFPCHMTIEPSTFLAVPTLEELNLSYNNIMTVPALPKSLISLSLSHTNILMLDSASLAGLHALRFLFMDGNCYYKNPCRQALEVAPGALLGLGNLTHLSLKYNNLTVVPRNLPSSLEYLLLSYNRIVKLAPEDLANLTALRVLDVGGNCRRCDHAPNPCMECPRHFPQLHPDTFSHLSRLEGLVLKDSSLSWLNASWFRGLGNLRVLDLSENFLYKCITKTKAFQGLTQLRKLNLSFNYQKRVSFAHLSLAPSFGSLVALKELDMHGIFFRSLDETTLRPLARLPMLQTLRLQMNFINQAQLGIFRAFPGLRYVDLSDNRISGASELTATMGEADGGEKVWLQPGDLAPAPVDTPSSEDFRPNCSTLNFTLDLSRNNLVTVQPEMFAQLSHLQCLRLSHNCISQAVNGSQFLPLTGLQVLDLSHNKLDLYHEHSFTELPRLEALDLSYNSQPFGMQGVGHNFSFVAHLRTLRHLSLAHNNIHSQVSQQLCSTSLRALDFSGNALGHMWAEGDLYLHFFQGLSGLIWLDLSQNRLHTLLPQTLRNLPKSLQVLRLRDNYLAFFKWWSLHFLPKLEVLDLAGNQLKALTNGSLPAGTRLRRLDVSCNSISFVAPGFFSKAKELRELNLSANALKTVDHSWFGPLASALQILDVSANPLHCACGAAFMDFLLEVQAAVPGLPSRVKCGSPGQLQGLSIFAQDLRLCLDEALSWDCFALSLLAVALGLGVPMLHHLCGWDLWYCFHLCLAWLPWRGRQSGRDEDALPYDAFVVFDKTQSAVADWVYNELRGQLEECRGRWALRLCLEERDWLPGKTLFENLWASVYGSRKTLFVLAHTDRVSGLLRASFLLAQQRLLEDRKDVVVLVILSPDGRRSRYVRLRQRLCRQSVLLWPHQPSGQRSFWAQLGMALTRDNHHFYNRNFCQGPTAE
Method in brief: as §1

Structure (SMILES)	IC50 (human TLR8) [nM]	IC50 (human TLR9) [nM]
COc1c(C)c(-c2cc3[nH]c(=O)n(C4CCC(N5CC6(COC6)C5)CC4)c3cc2C(C)C)cn2ncnc12 (single isomer, unassigned) [Example 270, 1-(4-(2-oxa-6-azaspiro[3.3]heptan-6-yl)cyclohexyl)-6-isopropyl-5-(8-methoxy-7-methyl-[1,2,4]triazolo[1,5-a]pyridin-6-yl)-1,3-dihydro-2H-benzo[d]imidazol-2-one]	2.83	11600
Cc1c(-c2cc3[nH]c(=O)n(C4CCC(N5CCC(F)(F)CC5)CC4)c3cc2C(C)C)cn2ncnc2c1C (single isomer, unassigned) [Example 275, 1-(4-(4,4-difluoropiperidin-1-yl)cyclohexyl)-5-(7,8-dimethyl-[1,2,4]triazolo[1,5-a]pyridin-6-yl)-6-isopropyl-1,3-dihydro-2H-benzo[d]imidazol-2-one]	0.81	19900
Cc1c(-c2cc3[nH]c(=O)n(C4CCC(N5CCC(F)(F)CC5)CC4)c3cc2C(C)C)cn2ncnc2c1C (single isomer, unassigned) [Example 276, 1-(4-(4,4-difluoropiperidin-1-yl)cyclohexyl)-5-(7,8-dimethyl-[1,2,4]triazolo[1,5-a]pyridin-6-yl)-6-isopropyl-1,3-dihydro-2H-benzo[d]imidazol-2-one]	1.92	15300
COC1CN(C2CCC(n3c(=O)[nH]c4cc(-c5cn6ncnc6c(C)c5C)c(C(C)C)cc43)CC2)C1 (single isomer, unassigned) [Example 277, 5-(7,8-dimethyl-[1,2,4]triazolo[1,5-a]pyridin-6-yl)-6-isopropyl-1-(4-(3-methoxyazetidin-1-yl)cyclohexyl)-1,3-dihydro-2H-benzo[d]imidazol-2-one]	0.74	7380
COC1CN(C2CCC(n3c(=O)[nH]c4cc(-c5cn6ncnc6c(C)c5C)c(C(C)C)cc43)CC2)C1 (single isomer, unassigned) [Example 278, 5-(7,8-dimethyl-[1,2,4]triazolo[1,5-a]pyridin-6-yl)-6-isopropyl-1-(4-(3-methoxyazetidin-1-yl)cyclohexyl)-1,3-dihydro-2H-benzo[d]imidazol-2-one]	1.57	15200
Cc1c(-c2cc3[nH]c(=O)n(C4CCC(N5CC6(COC6)C5)CC4)c3cc2C(C)C)cn2ncnc2c1C (single isomer, unassigned) [Example 281, 1-(4-(2-oxa-6-azaspiro[3.3]heptan-6-yl)cyclohexyl)-5-(7,8-dimethyl-[1,2,4]triazolo[1,5-a]pyridin-6-yl)-6-isopropyl-1,3-dihydro-2H-benzo[d]imidazol-2-one]	2.67	13100

Results, then the molecule that gave them:

IC50 (human TLR8) [nM]	IC50 (human TLR9) [nM]	Structure (SMILES)
0.51	14400	Cc1c(-c2cc3[nH]c(=O)n(C4CCC(N5CCC6(CC5)COC6)CC4)c3cc2C(C)C)cn2ncnc2c1C (single isomer, unassigned) [Example 282, 1-(4-(2-oxa-7-azaspiro[3.5]nonan-7-yl)cyclohexyl)-5-(7,8-dimethyl-[1,2,4]triazolo[1,5-a]pyridin-6-yl)-6-isopropyl-1,3-dihydro-2H-benzo[d]imidazol-2-one]
0.09	5340	Cc1c(-c2cc3[nH]c(=O)n(C4CCC(N5CCC6(CC5)COC6)CC4)c3cc2C(C)C)cn2ncnc2c1C (single isomer, unassigned) [Example 283, 1-(4-(2-oxa-7-azaspiro[3.5]nonan-7-yl)cyclohexyl)-5-(7,8-dimethyl-[1,2,4]triazolo[1,5-a]pyridin-6-yl)-6-isopropyl-1,3-dihydro-2H-benzo[d]imidazol-2-one]
0.75	47800	COc1cc(-c2cc3[nH]c(=O)n(C4CCC(N5CCC(S(C)(=O)=O)C5)CC4)c3cc2C(C)C)cn2ncnc12 (single isomer, unassigned) [Example 288, 6-isopropyl-5-(8-methoxy-[1,2,4]triazolo[1,5-a]pyridin-6-yl)-1-(4-(3-(methylsulfonyl)pyrrolidin-1-yl)cyclohexyl)-1,3-dihydro-2H-benzo[d]imidazol-2-one]
